Here are results for 3 compounds from PubChem BioAssay AID1963831 (Molecular Pharmacology Branch, DTP, NCI, 2024).

Structures are written as SMILES.
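Note: spheroids exposed to compounds for seven days; 100% = DMSO vehicle control viability.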

One experiment relates to 889142-216-R-J1-PDC complex spheroid viability. The experiment can be described thus: Anticancer human tumor 889142-216-R-J1-PDC patient-derived bladder carcinoma cell line growth inhibition [POLQ]. The conditions noted are these: second compound 0.0316 µM; first compound 3.16 µM; hits give low values. Here is the method: Multicellular complex tumor spheroid response to Polymerase (POL) inhibitors (novobiocin, ART-558, RP6685) in combination with a variety of drugs and investigational agents in selected tumor cell lines
The POL inhibitors (novobiocin, ART-558, and RP6685) were evaluated both individually and in combination with standard of care and investigational anticancer small molecules within a complex spheroid model of solid tumors. . Complex spheroids include a stromal component modeled by human endothelial cells (HUVEC) and fibroblasts modeled by human mesenchymal stem cells (MSCs). The concentration ranges selected for each drug and investigational agent were based upon clinically achievable concentrations if the clinical Cmax of the agent was known.
Compounds. The drugs and investigational agents: novobiocin (NSC847541), ART-558 (NSC835418), RP-6685 (NSC848927), peposertib (NSC802822), ceralasertib (NSC780249), elimusertib (NSC800525), camonsertib (NSC841442), AZD-1390 (NSC803789), olaparib (NSC753686), talazoparib (NSC767125), rucaparib (NSC756644), sotorasib (NSC818433), MRTX-1133 (NSC836407), SN-38 (NSC673596), topotecan (NSC609699), epotoside (NSC141540), doxorubicin (NSC123127), gemcitabine (NSC613327), 5-fluorouracil (NSC19893), paclitaxel (NSC125973), vemurafenib (NSC761431), MSA-2 (NSC828583), SN-011 (NSC837082), adavosertib (NSC754352), prexasertib (NSC758257), carboplatin (NSC241240) and oxaliplatin (NSC266046), were obtained from the National Cancer Institute (NCI) Developmental Therapeutics Program Chemical Repository (21). The FDA-approved anticancer drug set is available from the Developmental Therapeutics Program at https://dtp.cancer.gov/organization/dscb/obtaining/. […] The stock solutions were prepared in dimethyl sulfoxide (DMSO, Sigma-Aldrich, St. Louis, MO, cat. D2650), except for the platinum compounds which were prepared in saline (Quality Biological, Gaithersburg, MD, cat. 114-055-101), at 800-fold the tested concentration and stored at -70 degrees C prior to their use. All drugs and investigational agents were tested over a range starting from a high concentration at or near the clinical Cmax and decreasing in half-log increments. If the clinical Cmax for an agent had not been determined, the highest concentration tested was 10 microM, except for SN-38, which was tested at a high concentration of 1 microM.
Cell Culture. All cells were maintained in an incubator at 37 degrees C and 5% CO2 with 95% humidity. The PDC lines were cultured according to standard operating procedures established by the NCI PDMR (https://pdmr.cancer.gov). Table 3 of the manuscript, lists the cell lines along with the number of the three cell types plated to form the mct-spheroids and media for tumor cell growth. After thawing, all PDC lines, except 997537-175-T-J1-PDC and 415267-285-R-J2-PDC, were cultured in Matrigel-coated flasks prepared with a working solution of 1X Ham's F-12 nutrient mix, without supplementation (Thermo Fisher Scientific, cat. 11765054), 100 U/mL penicillin-streptomycin (Thermo Fisher Scientific, cat. 15140122), and 2.5% Matrigel (Corning Inc., Corning, NY, cat. 354248) for the first three passages. The two PDC lines 997537-175-T-J1-PDC and 415267-285-R-J2-PDC were cultured on uncoated flasks. The 857933-349-R-J2-PDC line was cultured in 6C/Colon 1B media containing advanced DMEM/F-12 (Thermo Fisher Scientific, cat. 12634028), 10 mM HEPES (Thermo Fisher Scientific, cat. 15630080), 1X GlutaMAX supplement (Thermo Fisher Scientific, cat. 35050061), 0.1 mg/mL primocin (InvivoGen, San Diego, CA, cat. ant-pm-2), 10% defined fetal bovine serum, heat inactivated (HyClone Laboratories Inc., Logan, UT, cat. SH30070.03HI), 50% L-WRN conditioned media (ATCC, cat. CRL-3276), 1.25 mM N-Acetyl-L-cysteine (Sigma-Aldrich, cat. A9165), 10 mM nicotinamide (Sigma-Aldrich, cat. N0636), 1X B-27 supplement (Thermo Fisher Scientific, cat. 17504044), 1X N-2 supplement (Thermo Fisher Scientific, cat. […]
For `CCc1cc2c(N3CCc4c(cc(Cn5ccnc5)cc4-c4cn(C)nc4C(F)(F)F)C3=O)ccnc2c(OC)n1` + Cc1cccc(N(C)C(=O)C2C(O)CCN2c2nc(C)cc(C(F)(F)F)c2C#N)c1, the viability, T/C is 127%.

Consider `COc1cc(C2c3cc4c(cc3C(OC3OC5COC(C)OC5C(O)C3O)C3COC(=O)C23)OCO4)cc(OC)c1O` (configuration not stated) + Nc1ccc(C#CCN(C(=O)Cc2ncc(C(F)(F)F)cc2C(F)(F)F)c2ccc(F)cc2)nn1, for which the viability, T/C was 96.8%.

The experiment is the same for the next values; noted with them: second compound 0.0316 µM; first compound 10 µM; hits give low values.
In the case of `CC1COCCN1c1cc(C2(S(C)(=N)=O)CC2)nc(-c2ccnc3[nH]ccc23)n1` (configuration not stated) + Cc1cccc(N(C)C(=O)C2C(O)CCN2c2nc(C)cc(C(F)(F)F)c2C#N)c1, the viability, T/C is 48.4%.

As to `CCc1cc2c(N3CCc4c(cc(Cn5ccnc5)cc4-c4cn(C)nc4C(F)(F)F)C3=O)ccnc2c(OC)n1` + Cc1cccc(N(C)C(=O)C2C(O)CCN2c2nc(C)cc(C(F)(F)F)c2C#N)c1, the viability, T/C was 103%.

Take `COc1cc(C2c3cc4c(cc3C(OC3OC5COC(C)OC5C(O)C3O)C3COC(=O)C23)OCO4)cc(OC)c1O` (configuration not stated) + Nc1ccc(C#CCN(C(=O)Cc2ncc(C(F)(F)F)cc2C(F)(F)F)c2ccc(F)cc2)nn1: the viability, T/C was 62.9%.

The same experiment, now with this note: second compound 0.1 µM; first compound 0.0316 µM; hits give low values.
In the case of `CC1COCCN1c1cc(C2(S(C)(=N)=O)CC2)nc(-c2ccnc3[nH]ccc23)n1` (configuration not stated) + Cc1cccc(N(C)C(=O)C2C(O)CCN2c2nc(C)cc(C(F)(F)F)c2C#N)c1, the viability, T/C is 92.9%.

`CCc1cc2c(N3CCc4c(cc(Cn5ccnc5)cc4-c4cn(C)nc4C(F)(F)F)C3=O)ccnc2c(OC)n1` + Cc1cccc(N(C)C(=O)C2C(O)CCN2c2nc(C)cc(C(F)(F)F)c2C#N)c1: the viability, T/C was 95.2%.

For the compound `COc1cc(C2c3cc4c(cc3C(OC3OC5COC(C)OC5C(O)C3O)C3COC(=O)C23)OCO4)cc(OC)c1O` (configuration not stated) + Nc1ccc(C#CCN(C(=O)Cc2ncc(C(F)(F)F)cc2C(F)(F)F)c2ccc(F)cc2)nn1, the viability, T/C was 99.5%.

The experiment is the same for the next values; noted with them: second compound 0.1 µM; first compound 0.1 µM; hits give low values.
With `CC1COCCN1c1cc(C2(S(C)(=N)=O)CC2)nc(-c2ccnc3[nH]ccc23)n1` (configuration not stated) + Cc1cccc(N(C)C(=O)C2C(O)CCN2c2nc(C)cc(C(F)(F)F)c2C#N)c1, the viability, T/C was 128%.

Regarding `CCc1cc2c(N3CCc4c(cc(Cn5ccnc5)cc4-c4cn(C)nc4C(F)(F)F)C3=O)ccnc2c(OC)n1` + Cc1cccc(N(C)C(=O)C2C(O)CCN2c2nc(C)cc(C(F)(F)F)c2C#N)c1, the viability, T/C was 116%.

Consider `COc1cc(C2c3cc4c(cc3C(OC3OC5COC(C)OC5C(O)C3O)C3COC(=O)C23)OCO4)cc(OC)c1O` (configuration not stated) + Nc1ccc(C#CCN(C(=O)Cc2ncc(C(F)(F)F)cc2C(F)(F)F)c2ccc(F)cc2)nn1, for which the viability, T/C was 101%.

The experiment is the same for the next values; noted with them: second compound 0.1 µM; first compound 0.316 µM; hits give low values.
As to `CC1COCCN1c1cc(C2(S(C)(=N)=O)CC2)nc(-c2ccnc3[nH]ccc23)n1` (configuration not stated) + Cc1cccc(N(C)C(=O)C2C(O)CCN2c2nc(C)cc(C(F)(F)F)c2C#N)c1, the viability, T/C is 82%.

As to `CCc1cc2c(N3CCc4c(cc(Cn5ccnc5)cc4-c4cn(C)nc4C(F)(F)F)C3=O)ccnc2c(OC)n1` + Cc1cccc(N(C)C(=O)C2C(O)CCN2c2nc(C)cc(C(F)(F)F)c2C#N)c1, the viability, T/C is 120%.

Turning to `COc1cc(C2c3cc4c(cc3C(OC3OC5COC(C)OC5C(O)C3O)C3COC(=O)C23)OCO4)cc(OC)c1O` (configuration not stated) + Nc1ccc(C#CCN(C(=O)Cc2ncc(C(F)(F)F)cc2C(F)(F)F)c2ccc(F)cc2)nn1, the viability, T/C is 69.3%.

The same experiment, now with this note: second compound 0.1 µM; first compound 1 µM; hits give low values.
As to `CC1COCCN1c1cc(C2(S(C)(=N)=O)CC2)nc(-c2ccnc3[nH]ccc23)n1` (configuration not stated) + Cc1cccc(N(C)C(=O)C2C(O)CCN2c2nc(C)cc(C(F)(F)F)c2C#N)c1, the viability, T/C is 58.1%.

With `CCc1cc2c(N3CCc4c(cc(Cn5ccnc5)cc4-c4cn(C)nc4C(F)(F)F)C3=O)ccnc2c(OC)n1` + Cc1cccc(N(C)C(=O)C2C(O)CCN2c2nc(C)cc(C(F)(F)F)c2C#N)c1, the viability, T/C was 123%.

For the compound `COc1cc(C2c3cc4c(cc3C(OC3OC5COC(C)OC5C(O)C3O)C3COC(=O)C23)OCO4)cc(OC)c1O` (configuration not stated) + Nc1ccc(C#CCN(C(=O)Cc2ncc(C(F)(F)F)cc2C(F)(F)F)c2ccc(F)cc2)nn1, the viability, T/C was 60.2%.

The experiment is the same for the next values; noted with them: second compound 0.1 µM; first compound 3.16 µM; hits give low values.
As for `CC1COCCN1c1cc(C2(S(C)(=N)=O)CC2)nc(-c2ccnc3[nH]ccc23)n1` (configuration not stated) + Cc1cccc(N(C)C(=O)C2C(O)CCN2c2nc(C)cc(C(F)(F)F)c2C#N)c1, the viability, T/C is 49.5%.

Regarding `CCc1cc2c(N3CCc4c(cc(Cn5ccnc5)cc4-c4cn(C)nc4C(F)(F)F)C3=O)ccnc2c(OC)n1` + Cc1cccc(N(C)C(=O)C2C(O)CCN2c2nc(C)cc(C(F)(F)F)c2C#N)c1, the viability, T/C is 102%.

With `COc1cc(C2c3cc4c(cc3C(OC3OC5COC(C)OC5C(O)C3O)C3COC(=O)C23)OCO4)cc(OC)c1O` (configuration not stated) + Nc1ccc(C#CCN(C(=O)Cc2ncc(C(F)(F)F)cc2C(F)(F)F)c2ccc(F)cc2)nn1, the viability, T/C is 84.5%.

The experiment is the same for the next values; noted with them: second compound 0.1 µM; first compound 10 µM; hits give low values.
Turning to `CC1COCCN1c1cc(C2(S(C)(=N)=O)CC2)nc(-c2ccnc3[nH]ccc23)n1` (configuration not stated) + Cc1cccc(N(C)C(=O)C2C(O)CCN2c2nc(C)cc(C(F)(F)F)c2C#N)c1, the viability, T/C was 45.8%.

`CCc1cc2c(N3CCc4c(cc(Cn5ccnc5)cc4-c4cn(C)nc4C(F)(F)F)C3=O)ccnc2c(OC)n1` + Cc1cccc(N(C)C(=O)C2C(O)CCN2c2nc(C)cc(C(F)(F)F)c2C#N)c1: the viability, T/C is 87.3%.

On to `COc1cc(C2c3cc4c(cc3C(OC3OC5COC(C)OC5C(O)C3O)C3COC(=O)C23)OCO4)cc(OC)c1O` (configuration not stated) + Nc1ccc(C#CCN(C(=O)Cc2ncc(C(F)(F)F)cc2C(F)(F)F)c2ccc(F)cc2)nn1, for which the viability, T/C was 61.5%.

The experiment is the same for the next values; noted with them: second compound 0.316 µM; first compound 0.0316 µM; hits give low values.
Regarding `CC1COCCN1c1cc(C2(S(C)(=N)=O)CC2)nc(-c2ccnc3[nH]ccc23)n1` (configuration not stated) + Cc1cccc(N(C)C(=O)C2C(O)CCN2c2nc(C)cc(C(F)(F)F)c2C#N)c1, the viability, T/C was 128%.

Regarding `CCc1cc2c(N3CCc4c(cc(Cn5ccnc5)cc4-c4cn(C)nc4C(F)(F)F)C3=O)ccnc2c(OC)n1` + Cc1cccc(N(C)C(=O)C2C(O)CCN2c2nc(C)cc(C(F)(F)F)c2C#N)c1, the viability, T/C is 116%.

As for `COc1cc(C2c3cc4c(cc3C(OC3OC5COC(C)OC5C(O)C3O)C3COC(=O)C23)OCO4)cc(OC)c1O` (configuration not stated) + Nc1ccc(C#CCN(C(=O)Cc2ncc(C(F)(F)F)cc2C(F)(F)F)c2ccc(F)cc2)nn1, the viability, T/C is 116%.

Still in this experiment, the particulars now being: second compound 0.316 µM; first compound 0.1 µM; hits give low values.
In the case of `CC1COCCN1c1cc(C2(S(C)(=N)=O)CC2)nc(-c2ccnc3[nH]ccc23)n1` (configuration not stated) + Cc1cccc(N(C)C(=O)C2C(O)CCN2c2nc(C)cc(C(F)(F)F)c2C#N)c1, the viability, T/C is 97%.

Consider `CCc1cc2c(N3CCc4c(cc(Cn5ccnc5)cc4-c4cn(C)nc4C(F)(F)F)C3=O)ccnc2c(OC)n1` + Cc1cccc(N(C)C(=O)C2C(O)CCN2c2nc(C)cc(C(F)(F)F)c2C#N)c1, for which the viability, T/C is 115%.

`COc1cc(C2c3cc4c(cc3C(OC3OC5COC(C)OC5C(O)C3O)C3COC(=O)C23)OCO4)cc(OC)c1O` (configuration not stated) + Nc1ccc(C#CCN(C(=O)Cc2ncc(C(F)(F)F)cc2C(F)(F)F)c2ccc(F)cc2)nn1: the viability, T/C is 86.2%.

The experiment is the same for the next values; noted with them: second compound 0.316 µM; first compound 0.316 µM; hits give low values.
Turning to `CC1COCCN1c1cc(C2(S(C)(=N)=O)CC2)nc(-c2ccnc3[nH]ccc23)n1` (configuration not stated) + Cc1cccc(N(C)C(=O)C2C(O)CCN2c2nc(C)cc(C(F)(F)F)c2C#N)c1, the viability, T/C was 85%.

`CCc1cc2c(N3CCc4c(cc(Cn5ccnc5)cc4-c4cn(C)nc4C(F)(F)F)C3=O)ccnc2c(OC)n1` + Cc1cccc(N(C)C(=O)C2C(O)CCN2c2nc(C)cc(C(F)(F)F)c2C#N)c1: the viability, T/C was 130%.

Regarding `COc1cc(C2c3cc4c(cc3C(OC3OC5COC(C)OC5C(O)C3O)C3COC(=O)C23)OCO4)cc(OC)c1O` (configuration not stated) + Nc1ccc(C#CCN(C(=O)Cc2ncc(C(F)(F)F)cc2C(F)(F)F)c2ccc(F)cc2)nn1, the viability, T/C was 78.8%.
